Among the data in ChEMBL document CHEMBL1158797, “Alkaloids and aromatics of Cyathobasis fruticulosa (Bunge) Aellen” (2005) are Activity values, retold here.

Test [1] concerns A2780. The test can be described thus: Cytotoxicity against human A2780 cells. The format is functional.
Test [2] relates to Saccharomyces cerevisiae. The test can be described thus: Antifungal activity against Saccharomyces cerevisiae RS321NYCp50 by microtiter yeast assay. The format is functional, organism-based.
Test [3] has as its system Saccharomyces cerevisiae. The test can be described thus: Antifungal activity against Saccharomyces cerevisiae RS321NpRAD52 by microtiter yeast assay. Format: functional, organism-based.

`CN(C)CCc1ccc(O)cc1` [HORDENINE] registered an Activity in test [1] of 39%.
`CN1CCc2c([nH]c3ccccc23)C1`: the Activity in test [1] was 38%.
Consider `CN(C=O)CCc1ccc(O)cc1`, for which the Activity result in test [2] and in test [3] was “Dose-dependent effect” in each case.
